# Data as given in patent US5631133A, “Transition in transcriptional activation by intracellular hormone receptors at the tumor stage of dermal fibrosarcoma development” (The Regents of the University of California, priority 1995, dated 1997).
# Tests used:
# [1] = target: endogenous glucocorticoid receptor (GR) (Mus musculus, UniProt P06537)
# Procedure: Cultures were established from skin and tumor tissues of several independent BPV transgenic mice (Sippola-Thiele et al., 1989), and maintained in Dulbecco's modified Eagle's medium (DMEM-21, high glucose formulation; Gibco-BRL) containing 8% fetal calf serum (Hyclone). Cells were propagated for no longer than five weeks and always used at low passage number (1-30). Several cultures were tested from each stage of the tumorigenic process: normal fibroblasts, NF (23784, 40950); mild fibromatosis, MF (39614, 14249, 27877); aggressive fibromatosis, AF (BPV7, BPV3, BPV21); fibrosarcoma, FS (BPV1, BPV22, BPV2, BPV11).
# Cells were plated at least 12 h before transfeetion at ~0.5×10^6 cells per 6 cm dish. Reporter gene DNA (2 μg), together with the 6RZ (100 ng) as an internal control for efficiency of transfection, were introduced into cells using the DEAE-dextran method (Ausubel). Where indicated, the expression vector 6RGR was co-transfected. After exposure to the DNA/DEAE-dextran mixture, the cells were incubated for 24 h in fresh medium containing charcoal-strippedserum (Miesfeld et al., 1987) with or without 100 nM dexamethasone (Sigma). Cells were harvested and the luciferase activity measured according to the instructions of the manufacturer (Promega) and normalized for β-galactosidase expression as previously described (Miner and Yamamoto (1992) Genes Dev., 6:2491-2501). Each experiment was repeated at least six times and the results averaged.
# To monitor the activity of the endogenous glucocorticoid receptor (GR) during dermal fibroblast tumorigenesis, we performed transient transfection assays using low passage primary cell lines representative of the four stages in this multistep pathway: normal dermal fibroblasts, NF; mild fibromatosis, MF; aggressive fibromatosis, AF; fibrosarcoma, FS. […] We first measured the hormone responsiveness of a reporter construct, TAT3-Luc, containing three tandem simple GREs derived from the tyrosine aminotransferase (TAT) gene (Jantzen et al., 1987).
# [2] = target: glucocorticoid receptor (GR) (Mus musculus, UniProt P06537); details: NF, MF, AF and FS cells; 500 nM dexamethasone, 2 h
# Procedure: Cells were grown in 24-well plates (Corning). The medium was changed to serum-free, phenol-red free DMEM, supplemented with insulin (5 μg/ml) and transferrin (10 μg/ml), with or without 500 nM dexamethasone for 2 h. After three washes with ice-cold PBS, cells were fixed with cold (-20° C.) methanol for 10 min, and then washed with TBS. Nonspecific binding sites were blocked in blocking buffer (BB) (TBS, 1% Triton, 1% glycine, 3% bovine serum albumin and 10% normal goat serum). […] Diaminobenzidine (Sigma) was used as a substrate for the peroxidase reaction.
# To assesss the nature of the differential GR activity, we examined the ligand-dependent nuclear translocation of GR in normal dermal fibroblasts and the three progressive conditions, MF, AF and FS.
# [3] = system: GR and AP-1 (composite element G(26)A); assay: Transient transfection of G(26)A3-Luc composite GRE luciferase reporter, hormone responsiveness; assay type: cell-based, mouse; details: 100 nM dexamethasone, 24 h
# Text: Where indicated, the expression vector 6RGR was co-transfected.
# In view of the observed changes in GR and AP-1 activities, we next tested a composite element that requires both factors for transcriptional activation. The synthetic composite element, G(26)A, which resembles a sequence in the glucocorticoid regulatory region of the glutamine synthetase gene (Zhang and Young (1991) J. Biol. Chem., 266:24332-24338), contains the TAT GRE sequence linked through a 15 bp spacer to the collagenase AP-1 sequence. In this configuration, neither GR alone nor AP-1 alone (either Jun homodimers or Jun-Fos heterodimers) activates a linked reporter gene in transfected embryonal earcinoma F9 cells (which express low levels of endogenous GR and AP-1 factors), whereas co-transfection of GR and AP-1 (Jun-Jun or Jun-Fos) produces a strong synergistic activation upon hormone addition. We transfected a luciferase reporter construct containing three copies of the G(26)A composite element, G(26)A3-Luc, into cell cultures representing each stage of the fibrosarcoma progression.
# endogenous glucocorticoid receptor (GR), sequence (P06537 whole entry): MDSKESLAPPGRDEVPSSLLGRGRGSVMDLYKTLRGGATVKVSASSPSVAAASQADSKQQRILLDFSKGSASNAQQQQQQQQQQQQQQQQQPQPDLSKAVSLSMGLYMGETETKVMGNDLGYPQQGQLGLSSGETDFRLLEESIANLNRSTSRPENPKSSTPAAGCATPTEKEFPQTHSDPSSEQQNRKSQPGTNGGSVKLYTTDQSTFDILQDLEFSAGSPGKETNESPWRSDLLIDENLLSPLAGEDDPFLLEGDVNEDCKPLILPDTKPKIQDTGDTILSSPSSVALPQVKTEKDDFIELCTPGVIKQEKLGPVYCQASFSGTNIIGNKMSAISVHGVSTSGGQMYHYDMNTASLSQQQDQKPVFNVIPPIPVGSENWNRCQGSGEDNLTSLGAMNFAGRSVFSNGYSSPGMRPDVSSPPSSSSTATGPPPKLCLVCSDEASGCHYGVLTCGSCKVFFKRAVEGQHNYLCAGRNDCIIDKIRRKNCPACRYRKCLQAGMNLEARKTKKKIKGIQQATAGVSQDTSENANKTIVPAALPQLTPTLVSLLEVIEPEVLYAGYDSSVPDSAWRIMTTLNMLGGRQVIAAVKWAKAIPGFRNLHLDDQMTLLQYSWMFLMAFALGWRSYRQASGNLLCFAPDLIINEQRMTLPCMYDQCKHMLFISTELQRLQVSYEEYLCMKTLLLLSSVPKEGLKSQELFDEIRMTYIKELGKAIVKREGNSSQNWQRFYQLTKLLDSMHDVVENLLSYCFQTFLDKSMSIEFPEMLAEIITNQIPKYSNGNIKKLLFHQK
# glucocorticoid receptor (GR), sequence (P06537 whole entry): as above
compound,measurement,setting,value
C[C@@H]1C[C@H]2[C@@H]3CCC4=CC(=O)C=C[C@]4(C)[C@@]3(F)[C@@H](O)C[C@]2(C)[C@@]1(O)C(=O)CO [dexamethasone],hormonal induction of luciferase activity (TAT3-Luc),"[1]; FS (fibrosarcoma) cells, 100 nM dexamethasone, 24 h",strong hormonal induction
same,stimulation of basal luciferase activity (TAT3-Luc),"[1]; NF, MF or AF cell lines, 100 nM dexamethasone, 24 h",only a modest stimulation
same,transcriptional response (TAT3-Luc),"[1]; nNF, dermal fibroblasts from non-transgenic mice",low transcriptional response
same,nuclear translocation of GR,[2],efficiently translocated to the nucleus
same,hormonal induction through the G(26)A element,[3]; AF cells,only a modest hormonal induction
same,induction of luciferase activity (G(26)A3-Luc),[3]; tumor (FS) cells,dramatically induced
